According to US11629171B2, “Beta-hairpin peptidomimetics” (POLYPHOR AG, priority 2017, dated 2023):
In brackets after ≈: the same amount, converted by molar mass. Where a SMILES comes first, the peptide text is derived from it. Bridges are numbered along the chain shown (N, C = ends). Roman numbers before positions name the chains, in order. [ ]: non-standard residue; d: D form. The star is where a group is joined. Leu(3R-OH) = CC(C)[C@@H](O)[C@H](N)C(=O)O; Thr(ol) = C[C@@H](O)[C@H](N)CO; Tle = CC(C)(C)[C@H](N)C(=O)O; NMeV = CN[C@H](C(=O)O)C(C)C; Hiv = CC(C)[C@H](O)C(=O)O; dDab = NCC[C@@H](N)C(=O)O; hSer = N[C@@H](CCO)C(=O)O; Dab = NCC[C@H](N)C(=O)O; Abu = CC[C@H](N)C(=O)O; Dap = NC[C@H](N)C(=O)O; NHCH2CH2OH = OCCN*

Key:
Assay type in all cases: cell-based
[1] = system: human red blood cells (hRBC); assay: Hemolysis; conditions: red cells of human, 1 h, 200
How it was run: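 hRBC washed 4× in PBS; 200 μg/mL peptide + 20% (v/v) hRBC, 1 h, 37° C, 300 rpm. Spin, supernatant ~7.5-fold diluted, OD540 blank corrected. % hemolysis = OD540 peptide / OD540 Triton X-100 × 100.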

[2] = system: Klebsiella pneumoniae 968733; conditions: 968733
How it was run: (§1)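 Two-fold peptide dilutions in polysorbate 80-containing (0.002% final) cation-adjusted Mueller-Hinton II broth were inoculated with about 10^6 CFU/mL. The MIC was taken as the lowest concentration, in μg/mL, preventing visible growth at 18-20 hours and 35° C.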

[3] = system: Acinetobacter baumannii 872842; conditions: 872842
How it was run: as §1

[4] = system: Escherichia coli ATCC 25922; conditions: ATCC 25922
How it was run: as §1

[5] = system: Klebsiella pneumoniae SSI #3010; conditions: SSI #3010
How it was run: as §1

[6] = system: Acinetobacter baumannii DSM 30008; conditions: DSM 30008
How it was run: as §1

[7] = system: Enterobacter cloacae 848840; conditions: 848840
How it was run: as §1

[8] = system: Pseudomonas aeruginosa ATCC 27853; conditions: ATCC 27853
How it was run: as §1

Escherichia coli 926415 = conditions: 926415
How it was run: as §1

| MIC [2] [mg/L] | MIC [3] [mg/L] | MIC [4] [mg/L] | MIC [5] [mg/L] | MIC [6] [mg/L] | MIC [7] [mg/L] | MIC [8] [mg/L] | MIC (Escherichia coli 926415) [mg/L] | Escherichia coli ATCC 25922 MIC [4] [mg/L] | Klebsiella pneumoniae SSI #3010 MIC [5] [mg/L] | Acinetobacter baumannii DSM 30008 MIC [6] [mg/L] | Pseudomonas aeruginosa ATCC 27853 MIC [8] [mg/L] | SMILES | Hemolysis at 200 μg/mL [1] [%] |
| --- | --- | --- | --- | --- | --- | --- | --- | --- | --- | --- | --- | --- | --- |
| 0.0625 (≈ 0.0262 µM) | 0.03125 (≈ 0.0131 µM) | 0.03125 (≈ 0.0131 µM) | 0.0625 (≈ 0.0262 µM) | 0.03125 (≈ 0.0131 µM) | 0.0625 (≈ 0.0262 µM) | 0.25 (≈ 0.105 µM) | 0.0625 (≈ 0.0262 µM) | – | – | – | – | CC[C@@H]1NC(=O)[C@@H](CC(C)C)NC(=O)[C@H](CCN)NC(=O)[C@@H](NC(=O)[C@H](CN)NC(=O)[C@@H](NC(=O)[C@H](CCN)NC(=O)CC[C@@H]2NC(=O)[C@H](CCN)NC(=O)[C@H](Cc3ccc(O)cc3)NC(=O)[C@@H](NC(=O)[C@@H](NC(C)=O)C(C)C)CSSC[C@@H](C(=O)N[C@@H](CO)C(N)=O)NC(=O)[C@H](C(C)(C)C)NC(=O)[C@H](CO)NC(=O)[C@H](Cc3c[nH]c4ccccc34)NC(=O)[C@H](CO)NC(=O)[C@@H](CCN)NC2=O)[C@@H](C)O)CCNC(=O)[C@H]([C@@H](C)O)NC(=O)[C@H](CCN)NC(=O)[C@H](CCN)NC1=O [Ex. 136] (I: Ac-VCY[Dab]E[dDab]SWS[Tle]CS-NH2 / II: [Dab]T[Dap][Dab][Dab][dL][Abu][Dab][Dab]T; disulfide I:2-I:11; amide I:5-II:N; lactam II:4-II:C) | 3 |
| 2 (≈ 0.824 µM) | 1 (≈ 0.412 µM) | – | – | – | 0.125 (≈ 0.0515 µM) | – | 0.25 (≈ 0.103 µM) | 0.0625 | 0.0625 | 0.25 | 0.25 | CC(=O)N[C@@H](CC(C)C)C(=O)N[C@H]1CSSC[C@@H](C(=O)N[C@@H](CO)C(N)=O)NC(=O)[C@H](C(C)C)NC(=O)[C@H](CCN)NC(=O)[C@H](Cc2c[nH]c3ccccc23)NC(=O)[C@H](CO)NC(=O)[C@@H](CCN)NC(=O)[C@H](CCC(=O)N[C@@H](CCN)C(=O)N[C@H](C(=O)N[C@@H](CN)C(=O)N[C@H]2CCNC(=O)[C@H]([C@@H](C)O)NC(=O)[C@H](CCN)NC(=O)[C@H](CCN)NC(=O)[C@H](CC(C)C)NC(=O)[C@@H](CC(C)C)NC(=O)[C@H](CCN)NC2=O)[C@@H](C)O)NC(=O)[C@H](CCN)NC(=O)[C@H](Cc2ccc(O)cc2)NC1=O [Ex. 330] (I: Ac-LCY[Dab]E[dDab]SW[Dab]VCS-NH2 / II: [Dab]T[Dap][Dab][Dab][dL]L[Dab][Dab]T; disulfide I:2-I:11; amide I:5-II:N; lactam II:4-II:C) | 1 |
| 0.125 (≈ 0.0509 µM) | 0.0625 (≈ 0.0254 µM) | 0.0625 (≈ 0.0254 µM) | 0.0625 (≈ 0.0254 µM) | 0.0625 (≈ 0.0254 µM) | 0.125 (≈ 0.0509 µM) | 0.125 (≈ 0.0509 µM) | 0.0625 (≈ 0.0254 µM) | – | – | – | – | CC(C)C[C@@H]1NC(=O)[C@@H](CC(C)C)NC(=O)[C@H](CCN)NC(=O)[C@@H](NC(=O)[C@H](CCN)NC(=O)[C@@H](NC(=O)[C@H](CCN)NC(=O)CC[C@@H]2NC(=O)[C@H](CCN)NC(=O)[C@H](C(C)C)NC(=O)[C@@H](NC(=O)[C@@H](O)C(C)C)CSSC[C@@H](C(=O)N[C@@H](Cc3ccc(O)cc3)C(=O)NCCO)NC(=O)[C@H](C(C)(C)C)NC(=O)[C@H](CO)NC(=O)[C@H](Cc3c[nH]c4ccccc34)NC(=O)[C@H](CCO)NC(=O)[C@@H](CCN)NC2=O)[C@@H](C)O)CCNC(=O)[C@H]([C@@H](C)O)NC(=O)[C@H](CCN)NC(=O)[C@H](CCN)NC1=O [Ex. 69] (I: H-[Hiv]CV[Dab]E[dDab][hSer]WS[Tle]CY-NHCH2CH2OH / II: [Dab]T[Dab][Dab][Dab][dL]L[Dab][Dab]T; disulfide I:2-I:11; amide I:5-II:N; lactam II:4-II:C) | 2 |
| 4 (≈ 1.66 µM) | 1 (≈ 0.414 µM) | 0.125 (≈ 0.0518 µM) | 0.125 (≈ 0.0518 µM) | 0.25 (≈ 0.104 µM) | 8 (≈ 3.32 µM) | 0.25 (≈ 0.104 µM) | 0.5 (≈ 0.207 µM) | – | – | – | – | CN[C@H](C(=O)N[C@H]1CSSC[C@@H](C(=O)N[C@@H](CO)C(N)=O)NC(=O)[C@H](C(C)C)NC(=O)[C@H](CCO)NC(=O)[C@H](Cc2c[nH]c3ccccc23)NC(=O)[C@H](CCO)NC(=O)[C@@H](CCN)NC(=O)[C@H](CCC(=O)N[C@@H](CCN)C(=O)N[C@H](C(=O)N[C@@H](CCN)C(=O)N[C@H]2CCNC(=O)[C@H]([C@@H](C)O)NC(=O)[C@H](CCN)NC(=O)[C@H](CCN)NC(=O)[C@H](CC(C)C)NC(=O)[C@@H](CC(C)C)NC(=O)[C@H](CCN)NC2=O)[C@@H](C)O)NC(=O)[C@H](CCN)NC(=O)[C@H](Cc2ccc(O)cc2)NC1=O)C(C)C [Ex. 50] (I: H-[NMeV]CY[Dab]E[dDab][hSer]W[hSer]VCS-NH2 / II: [Dab]T[Dab][Dab][Dab][dL]L[Dab][Dab]T; disulfide I:2-I:11; amide I:5-II:N; lactam II:4-II:C) | <1 |
| 0.125 (≈ 0.0524 µM) | 0.0625 (≈ 0.0262 µM) | 0.03125 (≈ 0.0131 µM) | 0.125 (≈ 0.0524 µM) | 0.125 (≈ 0.0524 µM) | 0.125 (≈ 0.0524 µM) | 0.125 (≈ 0.0524 µM) | 0.0625 (≈ 0.0262 µM) | – | – | – | – | CC(C)C[C@@H]1NC(=O)[C@@H](CC(C)C)NC(=O)[C@H](CCN)NC(=O)[C@@H](NC(=O)[C@H](CCN)NC(=O)[C@@H](NC(=O)[C@H](CCN)NC(=O)CC[C@@H]2NC(=O)[C@H](CCN)NC(=O)[C@H](Cc3ccc(O)cc3)NC(=O)[C@@H](NC(=O)[C@@H](O)C(C)C)CSSC[C@@H](C(=O)N[C@H](CO)[C@@H](C)O)NC(=O)[C@H](C(C)(C)C)NC(=O)[C@H](CO)NC(=O)[C@H](Cc3c[nH]c4ccccc34)NC(=O)[C@H](CO)NC(=O)[C@@H](CCN)NC2=O)[C@@H](C)O)CCNC(=O)[C@H]([C@@H](C)O)NC(=O)[C@H](CCN)NC(=O)[C@H](CCN)NC1=O [Ex. 80] (I: H-[Hiv]CY[Dab]E[dDab]SWS[Tle]C[Thr(ol)] / II: [Dab]T[Dab][Dab][Dab][dL]L[Dab][Dab]T; disulfide I:2-I:11; amide I:5-II:N; lactam II:4-II:C) | <1 |
| 0.25 (≈ 0.102 µM) | 0.25 (≈ 0.102 µM) | 0.125 (≈ 0.0509 µM) | 0.125 (≈ 0.0509 µM) | 0.0625 (≈ 0.0254 µM) | 0.125 (≈ 0.0509 µM) | 0.125 (≈ 0.0509 µM) | 0.5 (≈ 0.203 µM) | – | – | – | – | CC(C)C[C@@H]1NC(=O)[C@@H](CC(C)C)NC(=O)[C@H](CCN)NC(=O)[C@@H](NC(=O)[C@H](CCN)NC(=O)[C@@H](NC(=O)[C@H](CCN)NC(=O)CC[C@@H]2NC(=O)[C@H](CCN)NC(=O)[C@H]([C@@H](C)O)NC(=O)[C@@H](NC(=O)[C@@H](O)C(C)C)CSSC[C@@H](C(=O)N[C@@H](Cc3ccc(O)cc3)C(=O)NCCO)NC(=O)[C@H](C(C)(C)C)NC(=O)[C@H](CO)NC(=O)[C@H](Cc3c[nH]c4ccccc34)NC(=O)[C@H](CCO)NC(=O)[C@@H](CCN)NC2=O)[C@@H](C)O)CCNC(=O)[C@H]([C@@H](C)O)NC(=O)[C@H](CCN)NC(=O)[C@H](CCN)NC1=O [Ex. 70] (I: H-[Hiv]CT[Dab]E[dDab][hSer]WS[Tle]CY-NHCH2CH2OH / II: [Dab]T[Dab][Dab][Dab][dL]L[Dab][Dab]T; disulfide I:2-I:11; amide I:5-II:N; lactam II:4-II:C) | <1 |

| SMILES | MIC [2] [mg/L] | MIC [3] [mg/L] | MIC [4] [mg/L] | MIC [5] [mg/L] | MIC [6] [mg/L] | MIC [7] [mg/L] | MIC [8] [mg/L] | MIC (Escherichia coli 926415) [mg/L] | Escherichia coli ATCC 25922 MIC [4] [mg/L] | Klebsiella pneumoniae SSI #3010 MIC [5] [mg/L] | Acinetobacter baumannii DSM 30008 MIC [6] [mg/L] | Pseudomonas aeruginosa ATCC 27853 MIC [8] [mg/L] | Hemolysis at 200 μg/mL [1] [%] |
| --- | --- | --- | --- | --- | --- | --- | --- | --- | --- | --- | --- | --- | --- |
| CC(=O)N[C@@H](CCN)C(=O)N[C@H](C(=O)N[C@H]1CSSC[C@@H](C(=O)N[C@H](C(N)=O)C(C)C)NC(=O)[C@H](C(C)C)NC(=O)[C@@H]2CSSC[C@H](NC(=O)[C@H](Cc3ccc(O)cc3)NC1=O)C(=O)N[C@@H](CCC(=O)N[C@@H](CCN)C(=O)N[C@H](C(=O)N[C@@H](CN)C(=O)N[C@H]1CCNC(=O)[C@H]([C@@H](C)O)NC(=O)[C@H](CCN)NC(=O)[C@H](CCN)NC(=O)[C@H](CC(C)C)NC(=O)[C@@H](CC(C)C)NC(=O)[C@H](CCN)NC1=O)[C@@H](C)O)C(=O)N[C@H](CCN)C(=O)N[C@@H](CO)C(=O)N[C@@H](Cc1c[nH]c3ccccc13)C(=O)N2)[C@H](O)C(C)C [Ex. 235] (I: Ac-[Dab][Leu(3R-OH)]CYCE[dDab]SWCVCV-NH2 / II: [Dab]T[Dap][Dab][Dab][dL]L[Dab][Dab]T; disulfide I:3-I:12, I:5-I:10; amide I:6-II:N; lactam II:4-II:C) | 0.25 (≈ 0.0977 µM) | 0.0625 (≈ 0.0244 µM) | 0.0625 (≈ 0.0244 µM) | 0.25 (≈ 0.0977 µM) | 0.0625 (≈ 0.0244 µM) | 0.25 (≈ 0.0977 µM) | 0.25 (≈ 0.0977 µM) | 0.125 (≈ 0.0489 µM) | – | – | – | – | 4 |
